Experimental findings from PubChem BioAssay (NCI) are described below.

Several values for one entry are separate records, joined by “and”; a condition that tells them apart may be missing. Identical values can stand only once.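 Growth conditions: 96-well plates. Treatment: test compound, 48 hours, 5 concentrations. Analysis: linear interpolation between bracketing concentrations; unreached endpoints set to highest concentration. GI50 is the concentration that inhibits growth by half. At the TGI there is no net growth.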 Where only a bound is given, the exact number is not on record here.

Some test systems named below: CAKI-1 renal; HCT-116 colon; HT29 colon; LOX IMVI melanoma; MALME-3M melanoma; NCI-H226 lung; SK-MEL-2 melanoma; SK-MEL-5 melanoma; TK-10 renal; UACC-257 melanoma.
What all share (experiment): NCI tumour cell line growth inhibition, 48 h

`C#CC#CC#CC#CC#CC#CC#CC#CC[C@@H]1OC[C@@H](COC(=O)O[C@@H](C(=O)O[C@H]2C[C@@]3(O)[C@@H](OC(=O)c4ccccc4)[C@@H]4[C@]5(OC(C)=O)CO[C@@H]5C[C@H](O)[C@@]4(C)C(=O)[C@H](OC(C)=O)C(=C2C)C3(C)C)[C@@H](NC(=O)c2ccccc2)c2ccccc2)O1`: the GI50 is 0.477 µM in the experiment on CAKI-1 renal; 0.0919 µM in the experiment with HCT-116 colon; 0.095 µM in the experiment with HT29 colon; 0.0935 µM in the experiment with LOX IMVI melanoma; 0.721 µM in the experiment on MALME-3M melanoma; greater than 9.56 µM in the experiment with NCI-H226 lung. Besides, the GI50 in the experiment with SK-MEL-2 melanoma was 1.28 µM; in the experiment on SK-MEL-5 melanoma, 0.83 µM; in the experiment with TK-10 renal, 2.25 µM; in the experiment on UACC-257 melanoma, greater than 15.7 µM. Further, the TGI in the experiment on CAKI-1 renal, with HCT-116 colon, in the experiment on HT29 colon, in the experiment on LOX IMVI melanoma, in the experiment with MALME-3M melanoma and in the experiment on NCI-H226 lung was greater than 33.3 µM in each case. In addition, the TGI is greater than 33.3 µM in the experiment with SK-MEL-2 melanoma, greater than 9.15 µM in the experiment with SK-MEL-5 melanoma, greater than 33.3 µM in the experiment on TK-10 renal and greater than 33.3 µM with UACC-257 melanoma.

On to `Nc1ccc(C(=O)/C=C/c2ccccc2O)cc1`, for which the TGI in the experiment on CAKI-1 renal, with HCT-116 colon, in the experiment on HT29 colon, in the experiment with LOX IMVI melanoma, with MALME-3M melanoma and with NCI-H226 lung was greater than 100 µM each time. Further, the TGI in the experiment on SK-MEL-2 melanoma, in the experiment on SK-MEL-5 melanoma, in the experiment with TK-10 renal and in the experiment with UACC-257 melanoma was greater than 100 µM each time.

As to `COc1ccc2c(c1)[n+](=O)c(C(C)=O)c(C)n2[O-]`, the TGI in the experiment on CAKI-1 renal, with HCT-116 colon, in the experiment on HT29 colon, with LOX IMVI melanoma, in the experiment with MALME-3M melanoma and with NCI-H226 lung was greater than 100 µM throughout. Further, the TGI in the experiment with SK-MEL-2 melanoma, with SK-MEL-5 melanoma, in the experiment with TK-10 renal and in the experiment on UACC-257 melanoma was greater than 100 µM each time.

Consider `O=c1[nH]c2ccc([N+](=O)[O-])c(Cl)c2c2ccccc12`, for which the TGI was 13.2 µM with CAKI-1 renal; greater than 100 µM in the experiment with HCT-116 colon; 10.6 µM in the experiment with HT29 colon; greater than 100 µM in the experiment on LOX IMVI melanoma; 27.6 µM in the experiment with MALME-3M melanoma; 43.9 µM with NCI-H226 lung. The TGI in the experiment with SK-MEL-2 melanoma was 24.7 µM; in the experiment with SK-MEL-5 melanoma, 13 µM; with TK-10 renal, 11.3 µM; with UACC-257 melanoma it was 15.6 µM.

Consider `CCCCC[C@@H](C/C=C/CCC(=O)NC/C(=C/Cl)[C@H]1C(=O)C(C)(C)C(=O)[C@@H](C)[C@@]1(C)O)OC`, for which the GI50 with CAKI-1 renal was 18.2 µM; with HCT-116 colon, 14 µM; with HT29 colon, 14.5 µM; in the experiment on LOX IMVI melanoma, 18.8 µM; in the experiment on MALME-3M melanoma, 18.9 µM; in the experiment with NCI-H226 lung it was 18 µM. Besides, the GI50 in the experiment with SK-MEL-2 melanoma is 17.3 µM; with SK-MEL-5 melanoma, 17.3 µM; in the experiment on TK-10 renal it was 20.8 µM; in the experiment with UACC-257 melanoma it was 18.4 µM. The TGI is 34.1 µM in the experiment on CAKI-1 renal; 27.4 µM in the experiment with HCT-116 colon; 30.9 µM in the experiment with HT29 colon; 38 µM in the experiment with LOX IMVI melanoma; 35.5 µM in the experiment with MALME-3M melanoma; 36.1 µM in the experiment on NCI-H226 lung. Also, the TGI came out at 31.9 µM in the experiment on SK-MEL-2 melanoma, 32.1 µM in the experiment on SK-MEL-5 melanoma, 40.5 µM in the experiment on TK-10 renal and 34.3 µM in the experiment on UACC-257 melanoma.

`O=NN(CCCl)C(=O)NC1CCCCC1`: the GI50 was 22.9 µM and 30.5 µM and 60.5 µM in the experiment with CAKI-1 renal; 21 µM in the experiment with HCT-116 colon; 36.6 µM and 64.3 µM in the experiment on HT29 colon; 14.2 µM and 27.9 µM in the experiment on LOX IMVI melanoma; 18 µM in the experiment with MALME-3M melanoma; 25.2 µM in the experiment with NCI-H226 lung. Further, the GI50 is 22.7 µM and 194 µM in the experiment with SK-MEL-2 melanoma; 23 µM and 78.4 µM with SK-MEL-5 melanoma; 28 µM and 87.4 µM in the experiment on TK-10 renal; 23.7 µM in the experiment on UACC-257 melanoma. For the same compound, the TGI in the experiment with CAKI-1 renal was 41.7 µM and 101 µM and 142 µM; in the experiment with HCT-116 colon, 50.2 µM and 105 µM; in the experiment with HT29 colon, 139 µM and 165 µM; in the experiment with LOX IMVI melanoma, 52 µM and 56.9 µM and 74.8 µM; in the experiment on MALME-3M melanoma, 37 µM and 150 µM and 112 µM; in the experiment on NCI-H226 lung it was 68.2 µM and 150 µM and 180 µM. The TGI is 49.4 µM and 159 µM and 272 µM in the experiment on SK-MEL-2 melanoma; 78.5 µM and 133 µM and 209 µM in the experiment with SK-MEL-5 melanoma; 86.8 µM and 152 µM and 177 µM in the experiment on TK-10 renal; 73.8 µM and 127 µM and 82.4 µM in the experiment on UACC-257 melanoma.

With `COc1c(O)c2c3c(c1OC)-c1ccccc1CC3N(S(=O)(=O)c1ccc(C)cc1)CC2` (stereo unspecified), the GI50 with CAKI-1 renal is 2.12 µM; with HCT-116 colon it was 1.9 µM; with HT29 colon it was 9.34 µM; with LOX IMVI melanoma it was 2.59 µM; with MALME-3M melanoma it was 7.88 µM; with NCI-H226 lung it was 11.4 µM. The GI50 in the experiment on SK-MEL-2 melanoma is 1.47 µM; in the experiment with SK-MEL-5 melanoma it was 1.77 µM; in the experiment with TK-10 renal, 7.96 µM; in the experiment with UACC-257 melanoma it was 1.8 µM. Besides, the TGI in the experiment with CAKI-1 renal was greater than 50 µM; in the experiment on HCT-116 colon, greater than 50 µM; in the experiment on HT29 colon, 21 µM; with LOX IMVI melanoma, greater than 50 µM; in the experiment on MALME-3M melanoma it was greater than 50 µM; with NCI-H226 lung, greater than 50 µM. The TGI was 3.88 µM in the experiment on SK-MEL-2 melanoma, greater than 50 µM in the experiment with SK-MEL-5 melanoma, greater than 50 µM with TK-10 renal and greater than 50 µM in the experiment with UACC-257 melanoma.

For `Cc1nc2c(Br)cc(Br)cc2c(=O)n1-c1ccccc1NC1OCC(O)C(O)C1O` (stereo unspecified), the TGI in the experiment on CAKI-1 renal is greater than 100 µM; in the experiment on HCT-116 colon it was 65.7 µM and 40.2 µM; in the experiment with HT29 colon, 66.2 µM and 53.5 µM; with LOX IMVI melanoma, 97.7 µM and > 51.3 µM; with MALME-3M melanoma, greater than 100 µM; with NCI-H226 lung, > 100 µM and 48.9 µM. Further, the TGI with SK-MEL-2 melanoma is greater than 100 µM; in the experiment on SK-MEL-5 melanoma, > 100 µM and 31.3 µM; with TK-10 renal, greater than 100 µM; in the experiment with UACC-257 melanoma, > 100 µM and 99.3 µM. Also, the GI50 in the experiment on NCI-H226 lung was 42.3 µM and 16.2 µM; in the experiment on SK-MEL-5 melanoma, 36.9 µM and 13.4 µM.

For the compound `O=C(OC[C@@H]1CO1)c1cccc2c(=O)c3ccccc3[nH]c12`, the GI50 is 0.2 µM in the experiment on CAKI-1 renal; 0.127 µM in the experiment on HCT-116 colon; 0.311 µM in the experiment with HT29 colon; 0.0807 µM in the experiment on LOX IMVI melanoma; 0.472 µM in the experiment with MALME-3M melanoma; 0.301 µM in the experiment on NCI-H226 lung. For the same compound, the GI50 in the experiment on SK-MEL-2 melanoma was 0.251 µM; in the experiment with SK-MEL-5 melanoma it was 0.21 µM; in the experiment on TK-10 renal it was 0.646 µM; with UACC-257 melanoma, 0.517 µM. Further, the TGI in the experiment on CAKI-1 renal amounted to 0.687 µM; with HCT-116 colon it was 10.1 µM; with HT29 colon, 3.17 µM; with LOX IMVI melanoma, 0.48 µM; with MALME-3M melanoma it was 1.76 µM; in the experiment with NCI-H226 lung, 1.48 µM. Moreover, the TGI in the experiment on SK-MEL-2 melanoma amounted to 0.595 µM; in the experiment on SK-MEL-5 melanoma, 0.473 µM; with UACC-257 melanoma, 4.31 µM.
